In assay [1] the test system is lipoxygenase pathway (LTB4). Nature of the assay: biosynthesis of mediators of the lipoxygenase pathway in vitro on rat polymorphonucleocytes stimulated by ionophore A23187. The assay is classed as cell-based. The source says:
(§1) Tordjman et al. ("High-performance liquid chromatographic quantitation of cyclooxygenase and lipoxygenase metabolites of arachidonic acid from rat polymorphonuclear leucocytes" Journal of Chromatography, 532, 1990, 135-143).

For assay [2], the system named is cyclooxygenase pathway (PGE2). Nature of the assay: biosynthesis of mediators of the cyclooxygenase pathway in vitro on rat polymorphonucleocytes stimulated by ionophore A23187. The assay is classed as cell-based.
From the text: as §1

For a further assay, the system named is mouse. Nature of the assay: acute inflammatory pain test in the mouse (Siegmund test, writhing). The assay is classed as in vivo. The note with it: oral administration, read-out: dose causing 50% inhibition of the reactions of the animal. The source says:
Exp. Ther. 119, 1957, 184).
(Writhing tests count abdominal constrictions after an irritant is injected.)

A further assay concerns rat. Nature of the assay: polyarthritis auto-immune model in the rat using Freund's adjuvant. It counts as in vivo. The note with it: oral, 5 mg/kg/day, 14th day of the pathology. The protocol:
3) The activity on chronic inflammation was evaluated in a polyarthritis auto-immune model in the rat using Freund's adjuvant in accordance with the protocol described by J. Bonnet et al. ("Bone morphometric changes in adjuvant-induced polyarthritic osteopenia in rats; evidence for an early bone formation defect" J. Bone Miner. Res. 8, 1993, 659-668). By way of example, the compound of Example 1, at an oral dose of 5 mg/kg/day, inhibits by 30% the diffusion of arthritis on the 14th day of the pathology.

pIC50: −log10 of the molar value.

A word on the pIC50: it is −log10 of the IC50, conventionally taken in molar units.

In the case of `COc1ccc(-c2sc(CCC(C)(C)CC(=O)N(C)O)cc2-c2ccc(F)cc2)cc1` [Example 5], the values for the negative logarithm of the IC50 (pIC50) in assay [1] and in assay [2] were 6.60 and 5.60, respectively.
`COc1ccc(-c2cc(CCCC(=O)N(C)O)sc2-c2ccc(OC)cc2)cc1` [Example 6]: the values for the pIC50 in assay [1] and in assay [2] were 7.30 and 6.42, respectively. Also, the ED50 in the assay on mouse was 2.5 mg/kg.
Turning to `COc1ccc(-c2sc(CCCC(=O)N(C)O)cc2-c2ccc(C)cc2)cc1` [Example 16], the pIC50 in assay [1] and in assay [2] was 7.30 throughout.
Turning to `COc1ccc(-c2cc(CCC(C)(C)CC(=O)NO)sc2-c2ccc(OC)cc2)cc1` [Example 3], the negative-log IC50 (pIC50) in assay [1] was 6.00; in assay [2] it was 5.60.
As for `CCN(O)C(=O)CCc1cc(-c2ccc(OC)cc2)c(-c2ccc(OC)cc2)s1` [Example 22], the values for the pIC50 in assay [1] and in assay [2] were 7.30 and 7.10, respectively.
Regarding `COc1ccc(-c2sc(CCC(=O)N(C)O)cc2-c2ccc(F)cc2)cc1` [Example 2], the negative-log IC50 (pIC50) in assay [1] was 7.10; in assay [2], 6.42. The ED50 in the assay with mouse came to 5 mg/kg.
Turning to `COc1ccc(-c2cc(CCC(C)(C)CC(=O)N(C)O)sc2-c2ccc(OC)cc2)cc1` [Example 4], the pIC50 in assay [1] is 6.42; in assay [2] it was 6.12.
Regarding `COc1ccc(-c2cc(CCC(=O)N(C)O)sc2-c2ccc(OC)cc2)cc1` [Example 1, 3-[4,5-bis(4-methoxyphenyl)thien-2-yl]-N-hydroxy-N-methylpropionamide], the negative logarithm of the IC50 (pIC50) in assay [1] is 7.52; in assay [2], 7.30. In the assay on rat, the “inhibition of the diffusion of arthritis” value is reported as 30%. For the same compound, the ED50 in the assay on mouse worked out at 1 mg/kg.

The record behind these values is patent USRE37078E, “Thiophene compounds” (Adir et Compagnie, priority 1995, dated 2001).
